How the values were obtained:
[1] = patients treated for trigeminal neuralgia; cited from earlier work
[2] = tested on: rats in which facial pain was induced by inferior alveolar nerve injury; test: Air-puff test of mechanical allodynia in rats with facial pain induced by inferior alveolar nerve injury; format: in vivo, rats (Sprague-Dawley); conditions: rat; for analgesic effect on mechanical allodynia induced by inferior alveolar nerve injury: FIG. 4
Description: (§1) Mature male rats (Sprague-Dawley, 200-230 g) were used. The experimental animals were maintained under conditions of light-and-darkness cycle of 12 hours, a temperature of 22 to 25° C., a relative humidity of 40 to 60%, and free access to water and food.
(§2) To observe the behavioral response, the animals were placed in a cage and adapted for 20 minutes in a quiet area, followed by an air-puff test to assess mechanical allodynia to air stimulation. Aggressive behaviors such as head movement to avoid air stimulation or biting in response to the air stimulation applied to the facial region which is dominated by the trigeminal nerve were used as evaluation criteria for the behavioral reflex. A total of 10 trials and 50% or more responses were considered as the threshold of stimulation.
On the 7th day after surgery, the test compound (5, 10 and 20 mg/kg) and carbamazepine (25 and 50 mg/kg) were intraperitoneally administered to the test animals in which allodynia had been induced. At 30 minutes, 60 minutes, 90 minutes, 2 hours, 3 hours, 4 hours and 6 hours after administration, the pharmacological effects of the drugs were evaluated by observing changes in the behavioral responses.
(§3) The effect of the compounds was expressed as mean±standard error, and statistical significance was recognized when data were p<0.05 difference using one-way ANOVA and Dunnett's test.

[3] = tested on: rats in which trigeminal neuralgia was induced by the trigeminal nerve root compression; test: Air-puff test of mechanical allodynia in rats with trigeminal neuralgia induced by trigeminal nerve root compression; format: in vivo, rats (Sprague-Dawley); conditions: rat; for analgesic effect on mechanical allodynia induced by trigeminal nerve root compression: FIG. 2
Description: as §1
Rats were anesthetized with a mixed solution of ketamine (40 mg/kg) and xylazine (4 mg/kg), fixed on a stereotaxic instrument, and 4% agar solution was injected into the left trigeminal nerve roots using a stainless steel injection tube to compress the trigeminal nerve roots. 10 μl of 4% agar solution was slowly injected over the trigeminal nerve roots for 5 seconds, and the injection tube was removed after 5 minutes and then sutured (Jeon H J. et. al., A novel trigeminal neuropathic pain model: compression of the trigeminal nerve root produces prolonged nociception in rats, Prog Neuropsychopharmacol Biol Psychiatry. 2012).
as §2
On the 7th day after surgery, the test compound (10, 30 and 50 mg/kg) and carbamazepine (25 and 50 mg/kg) were intraperitoneally administered to the test animals in which allodynia had been induced. At 30 minutes, 60 minutes, 90 minutes, 2 hours, 3 hours, 4 hours and 6 hours after administration, the pharmacological effects of the drugs were evaluated by observing changes in the behavioral responses.
as §3

[4] = tested on: formalin-induced pain behavioral response in rats; test: Formalin-induced facial pain behavioral response in rats; format: in vivo, rats (Sprague-Dawley); conditions: 5 and 20 mg/kg intraperitoneal 30 minutes before 5% formalin, rat, FIG. 5
Description: as §1
5% Formalin (50 μl) was injected subcutaneously into the vibrissa pad on the left facial area of the rats using an insulin syringe (31 gauge). The behavioral response of rubbing or scratching the maxillofacial area was observed from 10 minutes after injection, accumulating in a unit of 5 minutes, for a total of 35 minutes (Park M K. et. al., Peripheral administration of NR2 antagonists attenuates orofacial formalin-induced nociceptive behavior in rats, Prog Neuropsychopharmacol Biol Psychiatry, 2011).
The vehicle, the test compound (5 and 20 mg/kg) and carbamazepine (25 mg/kg) were intraperitoneally administered, and after 30 minutes 5% formalin was injected into the left facial area.
as §3

[5] = overall conclusion, intraperitoneal
[6] = 30 and 50 mg/kg intraperitoneal

Row | SMILES | patients with side effects drowsiness, ataxia, nausea and anorexia [1] | analgesic effect on mechanical allodynia induced by inferior alveolar nerve injury ([2]; 25 mg/kg intraperitoneal) | time after administration at which the analgesic effect completely disappeared ([2]; 50 mg/kg intraperitoneal) [h] | analgesic effect on mechanical allodynia induced by inferior alveolar nerve injury ([2]; 50 mg/kg intraperitoneal) | analgesic effect on mechanical allodynia induced by trigeminal nerve root compression ([3]; 25 mg/kg intraperitoneal) | analgesic effect on mechanical allodynia induced by trigeminal nerve root compression ([3]; 50 mg/kg intraperitoneal) | time after administration from which significant pain-relieving effect was observed ([2]; 20 mg/kg intraperitoneal) [min] | time for which pain-relieving effect was maintained ([2]; 20 mg/kg intraperitoneal) [h] | inhibition of mechanical allodynia induced by inferior alveolar nerve injury ([2]; 5, 10 and 20 mg/kg intraperitoneal, 7th day after surgery, FIG. 3) | time after administration from which the effect was significant ([2]; 5 and 10 mg/kg intraperitoneal) [min] | time after administration up to which the effect was significant ([2]; 5 and 10 mg/kg intraperitoneal) [h] | analgesic action in the inferior alveolar nerve injury-induced facial pain model compared with carbamazepine [2, 5] | inhibition of mechanical allodynia induced by trigeminal nerve root compression ([3]; 30 and 50 mg/kg intraperitoneal, 7th day after surgery, FIG. 1) | time after administration for which analgesic effect was maintained [3, 6] [h] | time after administration from which analgesic effect could be observed [3, 6] [min] | analgesic action in the trigeminal neuralgia animal model compared with carbamazepine [3, 5] | pain behavioral response as compared with the vehicle-administered group [4]
1 | NC(=O)N1c2ccccc2C=Cc2ccccc21 [carbamazepine, reference compound] | about 40% | no analgesic effect | 2 | significant analgesic effect | no analgesic effect | transient low analgesic effect | – | – | – | – | – | – | – | – | – | – | –
2 | NC(=O)O[C@@H](Cn1ncnn1)c1ccccc1Cl [test compound] | – | – | – | – | – | – | 90 | 4 | significantly inhibited | 90 | 2 | equivalent to or greater than carbamazepine | significantly inhibited | 6 | 60 | better analgesic action than carbamazepine | statistically significant decrease
